The record followed here is patent publication US11844793B2, “Liquid formulations of indacaterol” (AeroRx Therapeutics LLC, priority 2020, dated 2023).

Type in all cases: physicochemical
Data set [1] is described as follows: Forced degradation study of indacaterol (RP-HPLC impurities). Conditions: for Total Impurities (%): includes 2% process-related impurity. As for the experimental part:
A degraded sample panel was prepared to identify indacaterol degradation pathways and products. Stress conditions are outlined in Table 1.
One of 6N HCl, 6N NaOH, or 30% H2O2 (aqueous) were added to a suitable volume of 100 μg/mL indacaterol and diluted with water:methanol (50:50, v:v) to achieve a final indacaterol concentration of 10 μg/mL. Samples were stored at ambient temperature. At specified time points, acidic and basic hydrolysis (1 N HCl and 1 N NaOH, respectively) samples were neutralized (H2O2 samples were not quenched) and reversed-phase high performance liquid chromatography (RP-HPLC) was used to quantitate indacaterol impurities. All samples were diluted to 5 μg/mL prior to RP-HPLC analysis. Method parameters are outlined in Table 2.
Total impurities (process-related and product-related) of the indacaterol forced degradation study samples are presented in Table 3. Forced degradation impurity peaks were identified based on their retention time relative (RRT) to the indacaterol peak. Impurity peaks already present in the indacaterol (control group at T0; total peak area approximately 2%) were considered process-related, while additional peaks formed after the degradation were considered product-related.

A short description of data set [2]: Aqueous solubility of indacaterol and indacaterol maleate in water (orbital shaker, UV-Vis). The note with it: water at pH 7.1. As for the experimental part:
Solubility studies of indacaterol and indacaterol maleate were performed using an orbital shaker method. Excess indacaterol was placed in a glass vial with water. The initial pH of the water was 7.1. Samples were shaken for 12 hours to ensure equilibrium was reached. After the 12 hour period, the vial was removed from the shaker and allowed to settle for 30 minutes. Then, the sample was filtered using a 0.2 μM polyvinylidene fluoride (PVDF) syringe filter; the initial 0.5 mL of filtrate was discarded. The pH was then measured and the concentration of the indacaterol was evaluated by UV-Vis.

Data set [3] is described as follows: Aqueous solubility of indacaterol with varying pH in citrate buffer. The note with it: aqueous citrate buffer 5 mM. As for the experimental part:
Solubility studies of indacaterol in solutions of varying pH were performed using an orbital shaker method. Excess indacaterol was placed in a glass vial with an aqueous citrate buffer (5 mM; prepared from citric acid and NaOH). Samples were shaken for 12 to 24 hours to ensure equilibrium was reached before checking and adjusting the pH (using 1 M HCl and NaOH) and placing samples back into the orbital shaker for an additional 12 hours. This process was repeated up to two times or until the desired pH was obtained. After the desired pH was reached, the vial was removed from the shaker and allowed to settle for 30 minutes. Then, the sample was filtered using a 0.2 μM PVDF syringe filter; the initial 0.5 mL of filtrate was discarded. The pH was then measured and the concentration of the indacaterol was evaluated by UV-Vis.

Molecules are shown by their SMILES.

Take `CCc1cc2c(cc1CC)CC(NC[C@H](O)c1ccc(O)c3[nH]c(=O)ccc13)C2` [Indacaterol, (R)-5-[2-(5,6-Diethylindan-2-ylamino)-1-hydroxyethyl]-8hydroxy-1H-quinolin-2-one]: the “Total Impurities (%)” value is 7.25% in data set [1] (Acidic Hydrolysis (1M HCl), 15 h, ambient temperature); 4.01% in data set [1] (Acidic Hydrolysis (1M HCl), T0); 7.69% in data set [1] (Basic Hydrolysis (1M NaOH), 15 h, ambient temperature); 3.99% in data set [1] (Basic Hydrolysis (1M NaOH), T0); 1.81% in data set [1] (Control, T0); “approximately 2%” in data set [1] (Control, T0, listed as indacaterol). The “Total Impurities (%)” value in data set [1] (Oxidation (1.2% H2O2), 7 h) is recorded as 2.77%; in data set [1] (Oxidation (1.2% H2O2), 29 h), 8.83%; in data set [1] (Oxidation (1.2% H2O2), 29 h, listed as indacaterol), “approximately 9%”. Besides, the “degradation of indacaterol samples in aqueous solutions over time” value in data set [1] (FIG. 1, forced degradation experiment) is reported as “minimal degradation”. In addition, the solubility in water entry in data set [2] is “insoluble”. In addition, in data set [3], the “Solubility of indacaterol versus pH” value is “increase with decreasing pH”.
